Results reported in US20240270739A1, “Heteroaryl Fluoroalkenes As DGK Inhibitors” (Incyte Corporation, priority 2023, published 2024).

What was measured:
[1] = target: T1, DGKα (Homo sapiens, UniProt P23743); experiment: In vitro DGKα inhibition assay (ADP-Glo); type: biochemical; conditions: His-tagged human recombinant enzyme, 0.1 nM DGKα, 50 μM ATP, 20 μM DLG, 90 minute incubation
T1 construct: His; purchased Signal Chem D21-10BH
Procedure: (§1) The DGKα and DGKζ biochemical reactions were performed using His-tagged human recombinant enzymes (Signal Chem, DGKα, #D21-10BH; DGKζ, #D30-10H)) and DLG (Dilauroyl-sn-glycerol) lipid substrate (Signal Chem, #D430-59). ADP-Glo assay was performed using ADP-Glo™ kinase Assay kit (Promega, #V9104). The reactions were carried out in assay buffer containing 40 mM Tris, pH 7.5, 0.1% CHAPS, 0.1% Prionex, 40 mM NaCl, 5 mM MgCl2, 1 mM CaCl2, and 1 mM DTT. DGKα reactions contained 0.1 nM DGKα, 50 μM ATP, and 20 μM DLG. And DGKζ reactions contained 0.4 nM DGKζ, 30 μM ATP, and 20 μM DLG.
(§2) For compound inhibition studies, 40 nL test compound in DMSO was added to wells of white polystyrene plates in 384-well (Greiner, #784075) or 1536-well format (Greiner, #782075). Compounds were added with top concentration of 2 mM with 11 point, 3-fold dilution series. Enzyme solution (contains 2×DGK enzyme concentration in 1× assay buffer) was added to the plate in 2 μL/well volume, followed by 2 μL/well of substrate solution (contains 2× concentration of ATP and DLG substrate in 1× assay buffer). Plates were then centrifuged for 1 min at 1200 RPM and sealed or lidded. For 4 μL reaction volume, test compounds were therefore diluted 100× to final top concentration of […]. After 90 minute incubation, reactions were quenched by addition of 2 μL/well Promega ADP-Glo Reagent, followed by centrifugation and lidding. After 60 min incubation, 2 μL/well Promega Kinase Detection Reagent was added, plates centrifuged, and incubated for 30 min. Plates were then read using Luminescence method on BMG PHERAstar FSX plate reader. Percent inhibition was calculated and IC50s were determined using 4-parameter fit in Genedata Screener. Labcyte Echo acoustic dispenser was used for compound addition, and Formulatrix Tempest liquid handler was used for all reagent dispenses. The compounds of the disclosure were tested in one or more of the assays described above, and the resulting data are shown in Table A.

[2] = target: T2, DGKζ (Homo sapiens, UniProt Q13574); experiment: In vitro DGKζ inhibition assay (ADP-Glo); type: biochemical; conditions: His-tagged human recombinant enzyme, 0.4 nM DGKζ, 30 μM ATP, 20 μM DLG, 90 minute incubation
T2 construct: His; purchased Signal Chem D30-10H
Procedure: as §1, §2

T1 sequence (P23743 whole entry): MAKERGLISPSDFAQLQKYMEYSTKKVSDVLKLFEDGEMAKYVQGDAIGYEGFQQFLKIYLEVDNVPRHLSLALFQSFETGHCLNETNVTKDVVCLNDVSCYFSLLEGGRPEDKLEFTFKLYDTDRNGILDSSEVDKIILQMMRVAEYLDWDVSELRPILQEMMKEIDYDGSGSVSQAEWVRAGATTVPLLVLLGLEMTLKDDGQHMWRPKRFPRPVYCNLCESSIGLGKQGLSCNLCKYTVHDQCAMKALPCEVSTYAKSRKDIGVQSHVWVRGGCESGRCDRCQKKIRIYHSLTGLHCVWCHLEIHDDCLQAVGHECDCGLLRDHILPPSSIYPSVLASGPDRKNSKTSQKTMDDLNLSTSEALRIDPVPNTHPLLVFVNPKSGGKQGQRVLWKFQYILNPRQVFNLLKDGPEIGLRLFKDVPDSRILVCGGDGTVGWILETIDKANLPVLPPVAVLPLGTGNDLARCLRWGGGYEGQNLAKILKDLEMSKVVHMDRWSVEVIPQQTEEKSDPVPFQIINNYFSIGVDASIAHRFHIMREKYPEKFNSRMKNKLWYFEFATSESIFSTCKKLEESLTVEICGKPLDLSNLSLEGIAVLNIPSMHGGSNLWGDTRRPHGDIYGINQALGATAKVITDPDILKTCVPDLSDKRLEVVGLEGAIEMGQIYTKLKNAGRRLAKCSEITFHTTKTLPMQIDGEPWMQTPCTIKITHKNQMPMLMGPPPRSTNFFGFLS
T2 sequence (Q13574 whole entry): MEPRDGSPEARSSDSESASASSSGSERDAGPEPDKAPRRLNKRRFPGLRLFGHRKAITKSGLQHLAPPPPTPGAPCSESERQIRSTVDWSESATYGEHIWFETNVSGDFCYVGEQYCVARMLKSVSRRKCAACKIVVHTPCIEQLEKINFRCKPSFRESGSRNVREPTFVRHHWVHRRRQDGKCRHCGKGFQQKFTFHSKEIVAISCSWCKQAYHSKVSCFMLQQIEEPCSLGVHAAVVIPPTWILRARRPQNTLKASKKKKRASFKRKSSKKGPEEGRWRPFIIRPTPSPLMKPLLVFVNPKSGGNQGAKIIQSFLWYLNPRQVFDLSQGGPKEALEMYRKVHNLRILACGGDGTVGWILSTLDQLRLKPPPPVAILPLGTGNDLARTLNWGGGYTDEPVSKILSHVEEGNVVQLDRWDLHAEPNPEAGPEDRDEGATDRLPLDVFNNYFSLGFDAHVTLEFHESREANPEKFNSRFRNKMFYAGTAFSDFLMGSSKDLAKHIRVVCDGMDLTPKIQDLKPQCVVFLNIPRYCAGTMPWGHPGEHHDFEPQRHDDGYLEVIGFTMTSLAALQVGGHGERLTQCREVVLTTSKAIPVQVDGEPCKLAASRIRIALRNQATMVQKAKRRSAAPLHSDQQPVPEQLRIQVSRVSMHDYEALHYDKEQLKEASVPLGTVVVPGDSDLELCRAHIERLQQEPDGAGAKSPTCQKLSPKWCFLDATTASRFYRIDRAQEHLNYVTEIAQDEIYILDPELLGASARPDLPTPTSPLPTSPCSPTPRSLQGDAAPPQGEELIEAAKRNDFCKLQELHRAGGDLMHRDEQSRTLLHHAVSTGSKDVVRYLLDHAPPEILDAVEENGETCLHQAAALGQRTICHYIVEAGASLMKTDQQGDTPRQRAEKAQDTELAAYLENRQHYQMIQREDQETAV

IC50 [1] | IC50 [2] | Compound
≤ 20 nM | ≤ 20 nM | NC[C@@H]1CCCN(c2c(/C=C(\F)c3csc(-c4ccnnc4)n3)ccc(Oc3ccccc3F)c2C(F)(F)F)C1 [Example 1, (S,Z)-(1-(6-(2-Fluoro-2-(2-(pyridazin-4-yl)thiazol-4-yl)vinyl)-3-(2-fluorophenoxy)-2-(trifluoromethyl)phenyl)piperidin-3-yl)methanamine]
≤ 20 nM | ≤ 20 nM | NC[C@@H]1CCCN(c2c(/C=C(\F)c3ccn(-c4ccnnc4)n3)ccc(Oc3ccccc3F)c2C(F)(F)F)C1 [Example 2, (S,Z)-(1-(6-(2-Fluoro-2-(1-(pyridazin-4-yl)-1H-pyrazol-3-yl)vinyl)-3-(2-fluorophenoxy)-2-(trifluoromethyl)phenyl)piperidin-3-yl)methanamine]
≤ 20 nM | ≤ 20 nM | COc1cc(F)ccc1Oc1ccc(/C=C(\F)c2csc(-c3ccnnc3)n2)c(N2CCC[C@@H](CN)C2)c1Cl [Example 3, (S,Z)-(1-(2-Chloro-6-(2-fluoro-2-(2-(pyridazin-4-yl)thiazol-4-yl)vinyl)-3-(4-fluoro-2-methoxyphenoxy)phenyl)piperidin-3-yl)methanamine]
20 to 200 nM | 20 to 200 nM | CN(c1c(/C=C(\F)c2csc(-c3ccnnc3)n2)ccc(Oc2ccccc2F)c1C(F)(F)F)[C@H]1CCNC[C@H]1F [Example 4, (3R,4S)-3-Fluoro-N-(6-((Z)-2-fluoro-2-(2-(pyridazin-4-yl)thiazol-4-yl)vinyl)-3-(2-fluorophenoxy)-2-(trifluoromethyl)phenyl)-N-methylpiperidin-4-amine]
≤ 20 nM | ≤ 20 nM | F/C(=C\c1ccc(Oc2ccccc2)c(C(F)(F)F)c1N1CCOC2(CCNCC2)C1)c1csc(-c2ccnnc2)n1 [Example 5, (Z)-4-(6-(2-Fluoro-2-(2-(pyridazin-4-yl)thiazol-4-yl)vinyl)-3-phenoxy-2-(trifluoromethyl)phenyl)-1-oxa-4,9-diazaspiro[5.5]undecane]
20 to 200 nM | ≤ 20 nM | CCN1CCC2(CC1)CN(c1c(/C=C(\F)c3csc(-c4ccnnc4)n3)ccc(Oc3ccccc3)c1C(F)(F)F)CCO2 [Example 6, (Z)-9-Ethyl-4-(6-(2-fluoro-2-(2-(pyridazin-4-yl)thiazol-4-yl)vinyl)-3-phenoxy-2-(trifluoromethyl)phenyl)-1-oxa-4,9-diazaspiro[5.5]undecane]
≤ 20 nM | 20 to 200 nM | F/C(=C\c1ccc(Oc2cccc(F)c2F)c(C(F)(F)F)c1N1CCCC2(CCNCC2)C1)c1csc(-c2cnsc2)n1 [Example 8, (Z)-4-(4-(2-(4-(2,3-Difluorophenoxy)-2-(2,9-diazaspiro[5.5]undecan-2-yl)-3-(trifluoromethyl)phenyl)-1-fluorovinyl)thiazol-2-yl)isothiazole]
20 to 200 nM | 200 to 2000 nM | F/C(=C\c1ccc(Oc2ccccc2)c(C(F)(F)F)c1N1CCCC2(CCNCC2)C1)c1csc(N2CCC(F)(F)C2)n1 [Example 9, (Z)-2-(3,3-Difluoropyrrolidin-1-yl)-4-(1-fluoro-2-(4-phenoxy-2-(2,9-diazaspiro[5.5]undecan-2-yl)-3-(trifluoromethyl)phenyl)vinyl)thiazole]
20 to 200 nM | ≤ 20 nM | F/C(=C\c1ccc(Oc2cccc(F)c2F)c(C(F)(F)F)c1N1CCCC2(CCN(CC3CC3)CC2)C1)c1ccn(-c2ccnnc2)n1 [Example 10, (Z)-9-(Cyclopropylmethyl)-2-(3-(2,3-difluorophenoxy)-6-(2-fluoro-2-(1-(pyridazin-4-yl)-1H-pyrazol-3-yl)vinyl)-2-(trifluoromethyl)phenyl)-2,9-diazaspiro[5.5]undecane]
≤ 20 nM | ≤ 20 nM | F/C(=C\c1ccc(Oc2cccc(F)c2F)c(C(F)(F)F)c1N1CCCC2(CCN(CC3CC3)CC2)C1)c1csc(-c2ccnnc2)n1 [Example 11, (Z)-4-(2-(2-(9-(Cyclopropylmethyl)-2,9-diazaspiro[5.5]undecan-2-yl)-4-(2,3-difluorophenoxy)-3-(trifluoromethyl)phenyl)-1-fluorovinyl)-2-(pyridazin-4-yl)thiazole]
≤ 20 nM | ≤ 20 nM | CC(C)(O)CN1CCC2(CCCN(c3c(/C=C(\F)c4csc(-c5ccnnc5)n4)ccc(Oc4ccccn4)c3C(F)(F)F)C2)CC1 [Example 12, (Z)-1-(2-(6-(2-Fluoro-2-(2-(pyridazin-4-yl)thiazol-4-yl)vinyl)-3-(pyridin-2-yloxy)-2-(trifluoromethyl)phenyl)-2,9-diazaspiro[5.5]undecan-9-yl)-2-methylpropan-2-ol]
≤ 20 nM | ≤ 20 nM | OCCN1CCC2(CCCN(c3c(/C=C(\F)c4csc(-c5ccnnc5)n4)ccc(Oc4ccccn4)c3C(F)(F)F)C2)CC1 [Example 13, (Z)-2-(2-(6-(2-Fluoro-2-(2-(pyridazin-4-yl)thiazol-4-yl)vinyl)-3-(pyridin-2-yloxy)-2-(trifluoromethyl)phenyl)-2,9-diazaspiro[5.5]undecan-9-yl)ethan-1-ol]
≤ 20 nM | ≤ 20 nM | F/C(=C\c1ccc(Oc2ccccn2)c(C(F)(F)F)c1N1CCCC2(CCN(CC3CC3)CC2)C1)c1csc(-c2ccnnc2)n1 [Example 14, (Z)-4-(2-(2-(9-(Cyclopropylmethyl)-2,9-diazaspiro[5.5]undecan-2-yl)-4-(pyridin-2-yloxy)-3-(trifluoromethyl)phenyl)-1-fluorovinyl)-2-(pyridazin-4-yl)thiazole]
20 to 200 nM | ≤ 20 nM | F/C(=C\c1ccc(OC2CCCCC2)c(C(F)(F)F)c1N1CCCC2(CCN(CC3CC3)CC2)C1)c1ccn(-c2ccnnc2)n1 [Example 15, (Z)-2-(3-(Cyclohexyloxy)-6-(2-fluoro-2-(1-(pyridazin-4-yl)-1H-pyrazol-3-yl)vinyl)-2-(trifluoromethyl)phenyl)-9-(cyclopropylmethyl)-2,9-diazaspiro[5.5]undecane]
≤ 20 nM | ≤ 20 nM | F/C(=C\c1ccc(Oc2ccccn2)c(C(F)(F)F)c1N1CCCC2(CCN(CC3CC3)CC2)C1)c1ccn(-c2ccnnc2)n1 [Example 16, (Z)-9-(Cyclopropylmethyl)-2-(6-(2-fluoro-2-(1-(pyridazin-4-yl)-1H-pyrazol-3-yl)vinyl)-3-(pyridin-2-yloxy)-2-(trifluoromethyl)phenyl)-2,9-diazaspiro[5.5]undecane]
≤ 20 nM | ≤ 20 nM | CCN1CCC2(CCCN(c3c(/C=C(\F)c4csc(-c5ccnnc5)n4)ccc(Oc4ccccc4)c3C(F)(F)F)C2)CC1 [Example 17, (Z)-4-(2-(2-(9-Ethyl-2,9-diazaspiro[5.5]undecan-2-yl)-4-phenoxy-3-(trifluoromethyl)phenyl)-1-fluorovinyl)-2-(pyridazin-4-yl)thiazole]
20 to 200 nM | ≤ 20 nM | F/C(=C\c1ccc(Oc2ccccc2)c(C(F)(F)F)c1N1CCCC2(CCN(CC3CC3)CC2)C1)c1csc(-c2ccnnc2)n1 [Example 18, (Z)-4-(2-(2-(9-(Cyclopropylmethyl)-2,9-diazaspiro[5.5]undecan-2-yl)-4-phenoxy-3-(trifluoromethyl)phenyl)-1-fluorovinyl)-2-(pyridazin-4-yl)thiazole]

Compound | IC50 [1] | IC50 [2]
F/C(=C\c1ccc(OC2CCC2)c(C(F)(F)F)c1N1CCOC2(CCNCC2)C1)c1csc(-c2ccnnc2)n1 [Example 7, (Z)-4-(3-Cyclobutoxy-6-(2-fluoro-2-(2-(pyridazin-4-yl)thiazol-4-yl)vinyl)-2-(trifluoromethyl)phenyl)-1-oxa-4,9-diazaspiro[5.5]undecane] | ≤ 20 nM | 20 to 200 nM
